# Measured values taken from patent US6124323A, “4-substituted piperidine analogs and their use as subtype selective NMDA receptor antagonists” (Warner-Lambert Company, priority 1998, dated 2000).
# Where a name gives a salt, the structure may show the parent alone.
# How the values were obtained:
# [1] = tested on: Maximal Electroshock-induced Seizures; assay: Maximal electroshock-induced seizures (MES); type: in vivo; details: Mus musculus; mice; 50 mA, 60 pulses/sec, 1 sec
# Excerpt: Seizures were induced by application of current (50 mA, 60 pulses/sec, 0.8 sec pulse width, 1 sec duration, d.c.) through saline-coated corneal electrodes using a Ugo Basile ECT device (Model 7801). […] A tonic seizure was defined as a hindlimb extension in excess of 90 degrees from the plane of the body.
# [2] = molecular target: T1, NMDA receptor subunits 1A/2B (Rattus norvegicus, UniProt P35439+Q00960); assay: Electrophysiological assay at NMDA receptor subunits expressed in Xenopus oocytes, 1A/2B; type: cell-based; details: Xenopus oocytes; glutamate 100 μm and glycine 1-100 μm; read-out: Subunits IC50, 1A/2B
# T1 construct: expressed in transfected cells; host or cells: Xenopus laevis oocytes (cRNA injection; clones from Dr. P. H. Seeburg)
# T1 sequence (Q00960 27-1482, other chains not shown): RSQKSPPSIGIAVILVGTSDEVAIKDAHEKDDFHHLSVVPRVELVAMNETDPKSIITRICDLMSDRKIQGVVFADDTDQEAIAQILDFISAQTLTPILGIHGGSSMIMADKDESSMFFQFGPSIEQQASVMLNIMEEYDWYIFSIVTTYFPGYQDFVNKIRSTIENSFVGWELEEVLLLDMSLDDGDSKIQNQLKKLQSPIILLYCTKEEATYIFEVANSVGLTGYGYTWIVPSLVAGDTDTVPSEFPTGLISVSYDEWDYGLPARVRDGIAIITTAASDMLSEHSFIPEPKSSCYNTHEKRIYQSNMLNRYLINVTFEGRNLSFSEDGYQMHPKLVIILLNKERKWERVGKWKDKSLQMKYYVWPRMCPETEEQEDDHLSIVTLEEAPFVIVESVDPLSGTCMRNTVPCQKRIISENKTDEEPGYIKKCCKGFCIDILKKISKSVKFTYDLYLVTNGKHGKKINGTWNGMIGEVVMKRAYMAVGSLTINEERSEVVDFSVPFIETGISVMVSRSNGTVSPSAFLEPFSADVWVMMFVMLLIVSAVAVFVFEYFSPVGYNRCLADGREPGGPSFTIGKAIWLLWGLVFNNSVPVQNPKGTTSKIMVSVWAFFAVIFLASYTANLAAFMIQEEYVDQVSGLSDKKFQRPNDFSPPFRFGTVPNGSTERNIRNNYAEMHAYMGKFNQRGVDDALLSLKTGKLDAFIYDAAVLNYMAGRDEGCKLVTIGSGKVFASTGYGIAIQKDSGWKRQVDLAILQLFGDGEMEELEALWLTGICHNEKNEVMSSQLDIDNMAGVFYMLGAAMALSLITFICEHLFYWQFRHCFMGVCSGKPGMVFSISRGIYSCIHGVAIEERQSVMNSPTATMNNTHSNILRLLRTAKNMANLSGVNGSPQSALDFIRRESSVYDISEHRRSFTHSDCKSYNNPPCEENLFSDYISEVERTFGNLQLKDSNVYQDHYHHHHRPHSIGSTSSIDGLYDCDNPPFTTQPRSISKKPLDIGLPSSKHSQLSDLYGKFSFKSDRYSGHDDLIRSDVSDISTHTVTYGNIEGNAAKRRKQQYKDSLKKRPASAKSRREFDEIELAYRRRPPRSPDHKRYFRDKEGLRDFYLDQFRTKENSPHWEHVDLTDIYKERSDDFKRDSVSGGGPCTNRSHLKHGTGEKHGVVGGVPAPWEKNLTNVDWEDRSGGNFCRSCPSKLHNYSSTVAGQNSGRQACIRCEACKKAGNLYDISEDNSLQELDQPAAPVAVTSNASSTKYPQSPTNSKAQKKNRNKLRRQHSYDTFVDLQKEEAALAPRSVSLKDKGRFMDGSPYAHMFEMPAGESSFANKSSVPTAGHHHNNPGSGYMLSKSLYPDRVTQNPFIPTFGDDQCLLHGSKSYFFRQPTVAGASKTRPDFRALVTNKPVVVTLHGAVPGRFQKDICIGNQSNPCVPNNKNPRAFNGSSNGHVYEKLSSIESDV
# In short: (§1)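 Two-electrode voltage clamp of Xenopus oocytes injected with rat NR1A plus NR2A, 2B or 2C cRNA (1:1), recorded 3–21 days post-injection in Ringer's, pH 7.4. Currents evoked by glutamate (100 μm) with glycine (1–100 μm); antagonist applied by bath perfusion at rising concentrations, IC50 from logistic fit or linear regression for incomplete curves.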
# [3] = molecular target: T2, NMDA receptor subunits 1A/2C (Rattus norvegicus, UniProt P35439+Q00961); assay: Electrophysiological assay at NMDA receptor subunits expressed in Xenopus oocytes, 1A/2C; type: cell-based; details: Xenopus oocytes; glutamate 100 μm and glycine 1-100 μm; read-out: Subunits IC50, 1A/2C
# T2 construct: expressed in transfected cells; host or cells: Xenopus laevis oocytes (cRNA injection; clones from Dr. P. H. Seeburg)
# T2 sequence (Q00961 20-1237, other chains not shown): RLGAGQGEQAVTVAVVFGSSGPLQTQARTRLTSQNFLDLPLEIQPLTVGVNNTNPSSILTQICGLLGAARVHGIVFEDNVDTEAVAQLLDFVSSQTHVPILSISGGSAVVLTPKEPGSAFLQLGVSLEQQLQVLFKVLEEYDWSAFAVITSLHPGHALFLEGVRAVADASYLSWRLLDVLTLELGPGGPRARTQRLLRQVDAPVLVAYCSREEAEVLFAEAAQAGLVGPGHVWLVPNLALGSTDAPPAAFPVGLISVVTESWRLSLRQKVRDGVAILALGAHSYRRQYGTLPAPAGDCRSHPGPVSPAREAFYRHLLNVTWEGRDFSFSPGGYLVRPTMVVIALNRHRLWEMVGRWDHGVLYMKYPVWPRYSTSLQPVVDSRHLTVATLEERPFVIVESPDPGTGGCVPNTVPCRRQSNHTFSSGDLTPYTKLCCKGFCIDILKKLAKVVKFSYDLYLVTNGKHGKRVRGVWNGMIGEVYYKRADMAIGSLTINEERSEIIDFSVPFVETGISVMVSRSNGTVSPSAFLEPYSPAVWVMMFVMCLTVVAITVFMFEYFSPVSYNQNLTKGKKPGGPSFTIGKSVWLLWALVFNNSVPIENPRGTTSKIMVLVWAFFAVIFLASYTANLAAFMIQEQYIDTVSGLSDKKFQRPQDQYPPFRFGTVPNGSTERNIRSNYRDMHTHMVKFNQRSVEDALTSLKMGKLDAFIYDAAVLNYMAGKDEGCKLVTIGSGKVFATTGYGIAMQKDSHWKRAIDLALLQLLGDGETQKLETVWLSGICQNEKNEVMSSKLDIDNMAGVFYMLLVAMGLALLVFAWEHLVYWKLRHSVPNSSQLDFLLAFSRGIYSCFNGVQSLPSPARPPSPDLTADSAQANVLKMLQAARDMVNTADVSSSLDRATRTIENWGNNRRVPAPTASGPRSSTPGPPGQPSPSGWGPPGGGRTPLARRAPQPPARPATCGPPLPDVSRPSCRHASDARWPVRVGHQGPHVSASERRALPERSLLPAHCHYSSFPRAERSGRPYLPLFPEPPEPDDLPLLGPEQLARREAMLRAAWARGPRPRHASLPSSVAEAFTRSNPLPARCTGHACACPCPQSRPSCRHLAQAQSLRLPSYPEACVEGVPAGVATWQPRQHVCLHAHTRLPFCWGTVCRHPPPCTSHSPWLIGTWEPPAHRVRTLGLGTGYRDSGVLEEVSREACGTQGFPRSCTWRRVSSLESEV
# In short: as §1
# [4] = molecular target: T3, NMDA receptor subunits 1A/2A (Rattus norvegicus, UniProt P35439+Q00959); assay: Electrophysiological assay at NMDA receptor subunits expressed in Xenopus oocytes, 1A/2A; type: cell-based; details: glutamate 100 μm and glycine 1-100 μm
# T3 construct: expressed in transfected cells; host or cells: Xenopus laevis oocytes (cRNA injection; clones from Dr. P. H. Seeburg)
# T3 sequence (Q00959 20-1464 limits assumed, other chains not shown): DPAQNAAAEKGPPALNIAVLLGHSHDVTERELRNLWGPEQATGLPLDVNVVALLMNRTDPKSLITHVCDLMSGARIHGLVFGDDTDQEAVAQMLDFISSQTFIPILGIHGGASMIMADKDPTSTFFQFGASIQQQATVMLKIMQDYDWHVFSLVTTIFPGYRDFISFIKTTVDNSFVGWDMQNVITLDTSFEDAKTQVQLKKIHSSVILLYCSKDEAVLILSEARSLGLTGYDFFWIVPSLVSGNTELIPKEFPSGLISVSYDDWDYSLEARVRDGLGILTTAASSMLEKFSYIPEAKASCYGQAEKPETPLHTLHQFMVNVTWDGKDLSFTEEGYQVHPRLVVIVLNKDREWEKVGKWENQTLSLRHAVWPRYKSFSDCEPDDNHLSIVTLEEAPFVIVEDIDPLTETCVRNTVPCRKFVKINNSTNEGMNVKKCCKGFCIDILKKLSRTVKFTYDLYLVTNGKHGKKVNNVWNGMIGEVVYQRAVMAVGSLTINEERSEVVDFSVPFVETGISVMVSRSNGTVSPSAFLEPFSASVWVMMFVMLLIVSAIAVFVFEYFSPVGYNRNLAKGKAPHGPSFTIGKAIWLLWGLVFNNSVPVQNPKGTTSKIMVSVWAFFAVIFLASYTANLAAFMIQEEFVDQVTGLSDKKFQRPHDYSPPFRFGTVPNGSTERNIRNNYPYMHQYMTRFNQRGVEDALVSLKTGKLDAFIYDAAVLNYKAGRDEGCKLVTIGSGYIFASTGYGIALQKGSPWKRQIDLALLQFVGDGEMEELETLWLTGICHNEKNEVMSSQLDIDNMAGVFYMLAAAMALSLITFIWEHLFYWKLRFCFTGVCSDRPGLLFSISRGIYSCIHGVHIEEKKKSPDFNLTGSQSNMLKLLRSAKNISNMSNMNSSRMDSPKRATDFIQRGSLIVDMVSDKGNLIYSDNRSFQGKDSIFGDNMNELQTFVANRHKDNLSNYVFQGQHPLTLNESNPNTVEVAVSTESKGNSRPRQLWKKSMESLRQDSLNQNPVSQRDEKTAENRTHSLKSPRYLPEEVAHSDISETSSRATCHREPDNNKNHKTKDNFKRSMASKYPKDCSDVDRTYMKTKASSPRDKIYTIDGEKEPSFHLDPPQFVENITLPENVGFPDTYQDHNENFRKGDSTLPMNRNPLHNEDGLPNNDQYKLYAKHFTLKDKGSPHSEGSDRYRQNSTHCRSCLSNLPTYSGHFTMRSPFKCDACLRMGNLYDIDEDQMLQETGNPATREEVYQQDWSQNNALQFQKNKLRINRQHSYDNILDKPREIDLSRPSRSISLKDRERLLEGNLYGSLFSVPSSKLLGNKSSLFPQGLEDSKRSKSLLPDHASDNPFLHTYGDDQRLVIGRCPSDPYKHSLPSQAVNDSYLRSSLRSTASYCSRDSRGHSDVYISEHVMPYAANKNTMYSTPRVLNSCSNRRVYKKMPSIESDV
# In short: as §1
Compound,ED50 [1] [mg/kg],IC50 [2] [µM],IC50 [3] [µM],IC50 [4] [µM]
"Cc1ccc(CC2CCN(CCOc3ccc(F)cc3)CC2)cc1 [Ex. 116, 1-(2-(4-Fluorophenoxy)ethyl)-4-(4-methylbenzyl)piperidine hydrochloride]",3,4.5,150,70
"CCc1ccc(CC2CCN(CCOc3ccc(O)cc3)CC2)cc1 [Ex. 120, hydrochloride]",2,0.02,> 300,55
"COc1ccc(CC2CCN(CCOc3ccc(O)cc3)CC2)cc1 [Ex. 121, 1-[2-(4-Hydroxyphenoxy)ethyl]-4-(4-methoxybenzyl)piperidine hydrochloride]",2.5,0.05,> 300,110
"Oc1ccc(OCCN2CCC(Cc3ccc(F)c(F)c3)CC2)cc1 [Ex. 122, 1-[2-(4-Hydroxyphenoxy)ethyl]-4-(3,4-difluorobenzyl)piperidine hydrochloride]",5,0.18,280,55
"Oc1ccc(OCCN2CCC(O)(Cc3ccc(F)cc3)CC2)cc1 [Ex. 123, 1-[2-(4-Hydroxyphenoxy)ethyl]-4-(4-fluorobenzyl)-4-hydroxy-piperidine hydrochloride]",3,0.07,> 300,50
"Cl.Cl.Oc1ccc(OCCN2CCC(Cc3ccccn3)CC2)cc1 [Ex. 125, 1-(2-(4-Hydroxyphenoxy)ethyl)-4-(2-picolyl)piperidine dihydrochloride]",15,3.3,> 300,75
"Oc1ccc(OCCN2CCC(Cc3ccccc3F)CC2)cc1 [Ex. 128, 1-[2-(4-Hydroxyphenoxy)ethyl]-4-(2-fluorobenzyl)piperidine hydrochloride]",1,0.04,> 300,110
"Oc1ccc(OCCN2CCC(Cc3ccc(C(F)(F)F)cc3)CC2)cc1 [Ex. 129, 1-[2-(4-Hydroxyphenoxy)ethyl]-4-(4-trifluorobenzyl)piperidine hydrochloride]",2,0.05,170,170
"CC(C)c1ccc(CC2CCN(CCOc3ccc(O)cc3)CC2)cc1 [Ex. 131, 1-[2-(4-Hydroxyphenoxy)ethyl]-4-(4-isopropylbenzyl)piperidine hydrochloride]",1.5,0.05,> 300,50
"CC(C)(C)c1ccc(CC2CCN(CCOc3ccc(O)cc3)CC2)cc1 [Ex. 132, 1-[2-(4-Hydroxyphenoxy)ethyl]-4-(4-t-butylbenzyl)piperidine hydrochloride]",1,0.16,230,23
"Cc1ccc(CC2CCN(CCOc3ccc(F)cc3)CC2)c(F)c1 [Ex. 133, 4-(2-Fluoro-4-methylbenzyl)-1-(2-(4-fluorophenoxy)ethyl)piperidine hydrochloride]",2.5,0.21,150,80
"Cc1ccc(CC2CCN(CCOc3ccc(O)cc3)CC2)c(F)c1 [Ex. 134, 4-(2-Fluoro-4-methylbenzyl)-1-(2-(4-hydroxyphenoxy)ethyl)piperidine hydrochloride]",1.5,0.03,140,60
"CN(CCN1CCC(Cc2ccccc2)CC1)c1ccccc1 [Ex. 143, 4-Benzyl-1-((2-(N-methyl-N-phenyl)amino)ethyl)piperidine dihydrochloride]",0.5,0.4,> 300,190
"Cl.Oc1ccc(OCCN2CCC(Cc3c(F)cccc3F)CC2)cc1 [Ex. 146, 1-[2-(4-Hydroxyphenoxy)ethyl]-4-(2,6-difluorobenzyl)piperidine hydrochloride]",0.8,0.01,160,30
"Cc1ccc(CC2CCN(CCOc3ccc(O)c(C)c3)CC2)c(F)c1 [Ex. 147, 1-[2-(4-Hydroxy-3-methylphenoxy)ethyl]-4-(2-fluoro-4-methylbenzyl)piperidine hydrochloride]",3,0.1,210,40
"Cc1ccc(CC2CCN(CCOc3ccc(O)c(F)c3)CC2)c(F)c1 [Ex. 149, 1-[2-(4-Hydroxy-3-fluorophenoxy)ethyl]-4-(2-fluoro-4-methylbenzyl)piperidine hydrochloride]",2,0.04,140,50
"Cc1ccc(CC2CCN(CCOc3ccc(O)c(F)c3)CC2)cc1 [Ex. 151, 1-[2-(4-Hydroxy-3-fluorophenoxy)ethyl]-4-(4-methylbenzyl)piperidine hydrochloride]",2.5,0.02,100,52
"Cc1ccc(CC2(O)CCN(CCOc3ccc(O)cc3)CC2)cc1.Cl [Ex. 154, 1-[2-(4-Hydroxyphenoxy)ethyl]-4-hydroxy-4-(4-methylbenzyl)piperidine hydrochloride]",1.5,0.02,230,250
"Cl.Oc1ccc(SCCN2CCC(Cc3ccc(F)cc3)CC2)cc1 [Ex. 165, 4-(4-Fluorobenzyl)-1-(2-(4-hydroxythiophenoxy)ethyl)piperidine hydrochloride]",0.5,0.05,301,65
"COc1ccc(C2CCN(CCCCc3ccccc3)CC2)cc1 [Ex. 166, 4-(4-Methoxyphenyl)-1-(4-phenylbutyl)piperidine]",0.7,170,> 300,270
"Oc1ccc(C2CCN(CCCCc3ccccc3)CC2)cc1 [Ex. 167, 4-(4-Hydroxyphenyl)-1-(4-phenylbutyl)piperidine]",0.3,0.02,301,110
"Cc1ccc(CC2CCN(CCOc3ccc(Cl)cc3)CC2)cc1.Cl [Ex. 168, 1-(2-(4-Chlorophenoxy)ethyl)-4-(4-methylbenzyl)piperidine hydrochloride]",4,9.5,> 300,> 300
"O=c1[nH]c2ccc(OCCCN3CCC(Cc4ccccc4)CC3)cc2[nH]1 [Ex. 170, 4-Benzyl-1-[3-(2-oxobenzimidazol-5-oxy)propyl]piperidine]",10,0.04,230,62
"S=c1[nH]c2ccc(OCCN3CCC(Cc4ccccc4)CC3)cc2[nH]1 [Ex. 171, 4-Benzyl-1-(2-(2-thioxobenzimidazol-5-oxy)ethyl)piperidine]",5,0.04,170,72
"Cc1ccc(CC2CCN(CCOc3ccc4[nH]c(=S)[nH]c4c3)CC2)cc1 [Ex. 174, 4-(4-Methylbenzyl)-1-(2-(2-thioxobenzimidazol-5-oxy)ethyl)piperidine]",5,0.03,45,35
"Fc1ccc(CC2CCN(CCOc3ccc4[nH]c(=S)[nH]c4c3)CC2)cc1 [Ex. 175, 4-(4-Fluorobenzyl)-1-(2-(2-thioxobenzimidazol-5-oxy)ethyl)piperidine]",8,0.02,70,48
